# Test results taken from patent US10588313B1, “Compounds of fatty acids and ammonium fatty acid salts” (Falcon Lab, LLC, priority 2019, dated 2020).
# Experiments:
# S. aureous = assay: AOAC International Use-Dilution Method, comparison test; conditions: 2.5% solution
# Protocol: In this test, 60 sterilized steel penicylinders are inoculated by soaking in a test culture of the bacteria. The cylinders are then dried in an incubator. After drying, they are submerged in test tubes containing the test substance and allowed to incubate for ten minutes. They are then aseptically transferred to individual tubes containing neutralization/growth medium. The neutralization/growth medium tubes are shaken and incubated. After the incubation period, tubes are qualitatively assessed for growth of the test organism.
# AOAC has defined the passing criteria for this test as a disinfectant to be less than or equal to 3 positive carriers out of 60 when testing against S. aureous.
# Streptococcus Group A = conditions: even numbered fatty acids C8 to C18; cited from earlier work
# Staphlycoccus aureous = conditions: even numbered fatty acids C8 to C18; cited from earlier work
# Candida albicans = conditions: even numbered fatty acids C8 to C18; cited from earlier work
# [1] = test system: Staphylococcus aureus ATCC 6538; assay: ASTM International Method E2315 assessment of antibacterial activity (time kill in suspension); type: cell-based; conditions: for percent reduction in bacteria: 1% dispersion in water; for percent reduction of the test bacteria: pH 6, 30 seconds contact time
# Protocol: A 1:99 mixture of the solid compound described in Experiment 1 was made by adding 0.2 gm. to 19.8 ml. of sterile water. […]. One ml of the inoculated substance was harvested at each contact time and neutralized in 9 ml of D/E broth. Enumerations were performed for each time point using standard microbiologic plating methods. At time zero, the percent reduction in bacteria was already 99.9997%, the limit of detection. The percent reduction at 30 seconds, 2 minutes and 10 minutes were also 99.9997%. When 0.1 ml of the 1% dispersion was diluted with 9.9 ml of sterile water to prepare a 0.1% dispersion and the same tests run, the percent reduction in bacteria count was 99.9997% at the 30-second contact time.
# Escherichia coli 8739 = assay: ASTM E2315 antibacterial activity; type: cell-based; conditions: 1% dispersion, 30 seconds contact time
# Protocol: (§1) A 1:99 mixture of the solid compound described in Experiment 1 was made by adding 0.2 gm. to 19.8 ml. of sterile water. Following ASTM International Method E2315 for assessment of antibacterial activity, 10 ml of this uniform mixture was aliquoted into a sterile vessel to produce a 1% dispersion that was then inoculated with the Gram-positive bacterium Staphylococcus aureus ATCC 6538 at 25° C. for a target concentration of 1×10^6 CFU (cells)/ml. One ml of the inoculated substance was harvested at each contact time and neutralized in 9 ml of D/E broth. Enumerations were performed for each time point using standard microbiologic plating methods. At time zero, the percent reduction in bacteria was already 99.9997%, the limit of detection. The percent reduction at 30 seconds, 2 minutes and 10 minutes were also 99.9997%. When 0.1 ml of the 1% dispersion was diluted with 9.9 ml of sterile water to prepare a 0.1% dispersion and the same tests run, the percent reduction in bacteria count was 99.9997% at the 30-second contact time.
# (§2) The 1% dispersion described in Example 3 was contacted with the Gram-negative bacteria Escherichia coli 8739 and Pseudomonas aeruginosa 15442 each in the manner described in Example 2. After 30 seconds of contact time, the reductions of the test bacteria were 99.9996% and 99.995% respectively.
# [2] = test system: Pseudomonas aeruginosa 15442; assay: ASTM E2315 antibacterial activity; type: cell-based; conditions: 1% dispersion, 30 seconds contact time
# Protocol: as §1, §2
# [3] = test system: Enterococcus faecalis 29212; assay: ASTM E2315 antibacterial activity; type: cell-based; conditions: 1% dispersion, 30 second contact time
# Protocol: as §1
# The same dispersion used in Examples 4 and 5 was tested against Gram-positive Enterococcus faecalis 29212 in the manner described in Example 2. After 30 second contact time, the bacterial reduction was >99.9986%.
# [4] = test system: Salmonella enterica ATCC 10708; assay: AOAC International Use-Dilution Method (hard surface disinfectant, steel penicylinders); type: cell-based; conditions: 2% dispersion, ten minutes exposure
# pH of water dispersion = type: physicochemical
# Protocol: (§3) A slurry of white solid formed immediately. About 200 ml of distilled water were added with stirring to obtain a clear solution with a pH of 8. […] It melted sharply at 62° C.
# After standing for 4 hours, a white, opaque, uniform thin liquid was obtained. The pH of the liquid was 6. The bottle was then shaken vigorously for several minutes. The contents of the bottle changed to a foamy, motionless, thick gel that totally filled the bottle. After standing overnight, the gel remained the same, still filling the bottle. But after standing for 48 hours, the gel reverted to the original thin liquid. Upon shaking the bottle again, the thick gel reappeared.
# [5] = Stability of solid and of water dispersion on storage; type: physicochemical; conditions: no emulsifier or surfactant
# Text: The compounds are believed to form as the result of hydrogen bonding wherein a hydrogen atom covalently bonded to nitrogen becomes attracted to the oxygen of the carboxylic acid forming a hydrogen bond.
# Since the compounds are stable at ambient temperatures and pressures and exist as non-hygroscopic crystalline solids, they may be transported as 100% active ingredients to their point of use. […] The compounds can be stored and shipped in any type of container, including plastic, paper or cloth bags, metal, glass or plastic. In an embodiment, the compounds can be transported in such containers to the point of use by mixing with water to produce disinfecting compositions.
# When the solid compound is mixed with water, it completely distributes in the water to produce a uniform composition in the absence of any emulsifier, surfactant, soap, wetting agent, dispersing agent or suspending agent. The solid compound, while being water-insoluble, remains stable as a dispersion indefinitely.
# as §3
compound,measurement,setting,value
CCCCCCCCC(=O)O.N [ammonium nonanoate],AOAC disinfectant test result,S. aureous,no disinfectant properties
same,number of confirmed positive test tubes out of 60 carriers,S. aureous; pass = less than or equal to 3 positive carriers out of 60,60
CCCCCCCCCC(=O)O [capric acid],antimicrobial activity among fatty acids tested,Streptococcus Group A,highest activity
same,antimicrobial activity among fatty acids tested,Staphlycoccus aureous,highest activity
same,antimicrobial activity among fatty acids tested,Candida albicans,highest activity
ammonium di-nonanoate [Example 1],percent reduction in bacteria count,"[1]; 0.1% dispersion in water, 30-second contact time",99.9997%
same,percent reduction in bacteria,[1]; 30 seconds contact time,99.9997%
same,percent reduction in bacteria,[1]; 2 minutes contact time,99.9997%
same,percent reduction in bacteria,[1]; 10 minutes contact time,99.9997%
same,percent reduction in bacteria,"[1]; time zero, 25° C., 1×10^6 CFU/ml, 99.9997% = limit of detection",99.9997%
same,percent reduction of the test bacteria,[1]; 1% dispersion of solid stored in a plastic container for over 5 years,> 99.9997%
same,reduction of the test bacteria,Escherichia coli 8739,99.9996%
same,reduction of the test bacteria,[2],99.995%
same,bacterial reduction,[3],> 99.9986%
same,AOAC disinfectant test result,[4],pass
same,number of positive test tubes (growth) out of 60 carriers,[4]; pass = less than or equal to 1 positive carrier out of 60,0
same,pH of water dispersion,pH of water dispersion; 1% dispersion in distilled water,6
same,pH of water dispersion,pH of water dispersion; 10% dispersion in distilled water,6
same,pH of water dispersion,pH of water dispersion; concentration not given,6
same,stability of water dispersion on storage,[5],remained unchanged in appearance after months of storage
ammonium di-octanoate [Example 10],percent reduction of the test bacteria,[1]; 0.5% dispersion in water,> 99.988%
same,pH of water dispersion,pH of water dispersion; 0.5% dispersion in distilled water,6
